Measured values as given in patent US8921362B2, “6,7-dialkoxy quinazoline derivatives and methods of treating drug resistant and other tumors” (Natco Pharma Limited, priority 2008, dated 2014).

Columns and labels:
Test in all cases: KinomeScan
Assay type in all cases: binding
Settings in all cases: read-out: % Ctrl @ 10000 nM
PCTK2 = molecular target: T1, PCTK2 (Homo sapiens, UniProt Q00537)
T1 construct: host or cells: E. coli host derived from BL21, infected with T7 phage
In short: (§1)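 Lysates from phage-infected E. coli (32° C., shaking until lysis) were filtered and exposed to biotin-blocked ligand beads together with test compound. Eluted phage was counted by quantitative PCR.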

CSNK1G3 = molecular target: T2, CSNK1G3 (Homo sapiens, UniProt Q9Y6M4)
T2 construct: purchased Ambit Biosciences Corp (KinomeScan); host or cells: T7 phage in E. coli host derived from BL21
In short: as §1

BLK = molecular target: T3, BLK (Homo sapiens, UniProt P51451)
T3 construct: host or cells: E. coli host derived from BL21
In short: as §1

[1] = molecular target: T4, EGFR(L747-E749del, A750P) (Homo sapiens, UniProt P00533, A750P/DEL747-749)
T4 construct: purchased Ambit Biosciences Corp (KinomeScan); host or cells: T7 phage in E. coli host derived from BL21
In short: as §1

CLK3 = molecular target: T5, CLK3 (Homo sapiens, UniProt P49761)
T5 construct: host or cells: T7 phage in E. coli host derived from BL21
In short: as §1

[2] = molecular target: T6, RPS6KA6(Kin.Dom.-1-N-terminal) (Homo sapiens, UniProt Q9UK32)
T6 construct: RPS6KA6(Kin.Dom.-1-N-terminal); host or cells: E. coli host derived from BL21, T7 phage display
In short: as §1

RET(V804L) = molecular target: T7, RET(V804L) (Homo sapiens, UniProt P07949, V804L)
T7 construct: host or cells: E. coli host derived from BL21, T7 phage display
In short: as §1

BIKE = molecular target: T8, BIKE (Homo sapiens, UniProt Q9NSY1)
T8 construct: host or cells: E. coli host derived from BL21
In short: as §1

MYO3A = molecular target: T9, MYO3A (Homo sapiens, UniProt Q8NEV4)
T9 construct: host or cells: T7 phage grown in E. coli host derived from BL21
In short: as §1

SgK110 = molecular target: T10, SgK110 (Homo sapiens, UniProt P0C264)
T10 construct: host or cells: T7 phage grown in E. coli (BL21-derived)
In short: as §1

ABL1(F317I) = molecular target: T11, ABL1(F317I) (Homo sapiens, UniProt P00519, F317I)
T11 construct: host or cells: E. coli (BL21-derived), T7 phage lysate
In short: as §1

ADCK4 = molecular target: T12, ADCK4 (Homo sapiens, UniProt Q96D53)
T12 construct: host or cells: E. coli (BL21-derived), T7 phage lysate
In short: as §1

BRK = molecular target: T13, BRK (Homo sapiens, UniProt Q13882)
T13 construct: host or cells: E. coli host derived from BL21
In short: as §1

MAP4K2 = molecular target: T14, MAP4K2 (Homo sapiens, UniProt Q12851)
T14 construct: host or cells: E. coli host derived from the BL21 strain, infected with T7 phage
In short: as §1

FES = molecular target: T15, FES (Homo sapiens, UniProt P07332)
T15 construct: host or cells: T7 phage in E. coli host derived from BL21
In short: as §1

LYN = molecular target: T16, LYN (Homo sapiens, UniProt P07948)
T16 construct: host or cells: E. coli host derived from the BL21 strain, infected with T7 phage
In short: as §1

CIT = molecular target: T17, CIT (Homo sapiens, UniProt O14578)
T17 construct: host or cells: T7 phage in E. coli host derived from BL21
In short: as §1

[3] = molecular target: T18, JAK1(JH1domain-catalytic) (Homo sapiens, UniProt P23458)
T18 construct: JAK1(JH1domain-catalytic); host or cells: T7 phage grown in E. coli host derived from BL21
In short: as §1

EPHB4 = molecular target: T19, EPHB4 (Homo sapiens, UniProt P54760)
T19 construct: purchased Ambit Biosciences Corp; host or cells: T7 phage in E. coli host derived from BL21
In short: as §1

PHKG2 = molecular target: T20, PHKG2 (Homo sapiens, UniProt P15735)
T20 construct: host or cells: E. coli host derived from BL21, infected with T7 phage
In short: as §1

PLK1 = molecular target: T21, PLK1 (Homo sapiens, UniProt P53350)
T21 construct: host or cells: T7 phage in E. coli host derived from BL21
In short: as §1

ACVR2B = molecular target: T22, ACVR2B (Homo sapiens, UniProt Q13705)
T22 construct: host or cells: E. coli (BL21-derived), T7 phage lysate
In short: as §1

PRKCQ = molecular target: T23, PRKCQ (Homo sapiens, UniProt Q04759)
T23 construct: host or cells: T7 phage in E. coli host derived from BL21
In short: as §1

[4] = molecular target: T24, TYK2(JH1domain-catalytic) (Homo sapiens, UniProt P29597)
T24 construct: TYK2(JH1domain-catalytic); host or cells: E. coli host derived from BL21, T7 phage
In short: as §1

PAK6 = molecular target: T25, PAK6 (Homo sapiens, UniProt Q9NQU5)
T25 construct: host or cells: E. coli host derived from BL21, infected with T7 phage
In short: as §1

LATS2 = molecular target: T26, LATS2 (Homo sapiens, UniProt Q9NRM7)
T26 construct: host or cells: T7 phage grown in E. coli host derived from BL21
In short: as §1

BMPR1B = molecular target: T27, BMPR1B (Homo sapiens, UniProt O00238)
T27 construct: host or cells: E. coli host derived from BL21
In short: as §1

MLK3 = molecular target: T28, MLK3 (Homo sapiens, UniProt Q16584)
T28 construct: host or cells: T7 phage grown in E. coli host derived from BL21
In short: as §1

PKAC-beta = molecular target: T29, PKAC-beta (Homo sapiens, UniProt P22694)
T29 construct: host or cells: T7 phage in E. coli host derived from BL21
In short: as §1

MLK1 = molecular target: T30, MLK1 (Homo sapiens, UniProt P80192)
T30 construct: host or cells: T7 phage grown in E. coli host derived from BL21
In short: as §1

[5] = molecular target: T31, JAK3(JH1domain- catalytic) (Homo sapiens, UniProt P52333)
T31 construct: JAK3(JH1domain- catalytic); host or cells: T7 phage grown in E. coli host derived from BL21
In short: as §1

T19 sequence (P54760 16-987): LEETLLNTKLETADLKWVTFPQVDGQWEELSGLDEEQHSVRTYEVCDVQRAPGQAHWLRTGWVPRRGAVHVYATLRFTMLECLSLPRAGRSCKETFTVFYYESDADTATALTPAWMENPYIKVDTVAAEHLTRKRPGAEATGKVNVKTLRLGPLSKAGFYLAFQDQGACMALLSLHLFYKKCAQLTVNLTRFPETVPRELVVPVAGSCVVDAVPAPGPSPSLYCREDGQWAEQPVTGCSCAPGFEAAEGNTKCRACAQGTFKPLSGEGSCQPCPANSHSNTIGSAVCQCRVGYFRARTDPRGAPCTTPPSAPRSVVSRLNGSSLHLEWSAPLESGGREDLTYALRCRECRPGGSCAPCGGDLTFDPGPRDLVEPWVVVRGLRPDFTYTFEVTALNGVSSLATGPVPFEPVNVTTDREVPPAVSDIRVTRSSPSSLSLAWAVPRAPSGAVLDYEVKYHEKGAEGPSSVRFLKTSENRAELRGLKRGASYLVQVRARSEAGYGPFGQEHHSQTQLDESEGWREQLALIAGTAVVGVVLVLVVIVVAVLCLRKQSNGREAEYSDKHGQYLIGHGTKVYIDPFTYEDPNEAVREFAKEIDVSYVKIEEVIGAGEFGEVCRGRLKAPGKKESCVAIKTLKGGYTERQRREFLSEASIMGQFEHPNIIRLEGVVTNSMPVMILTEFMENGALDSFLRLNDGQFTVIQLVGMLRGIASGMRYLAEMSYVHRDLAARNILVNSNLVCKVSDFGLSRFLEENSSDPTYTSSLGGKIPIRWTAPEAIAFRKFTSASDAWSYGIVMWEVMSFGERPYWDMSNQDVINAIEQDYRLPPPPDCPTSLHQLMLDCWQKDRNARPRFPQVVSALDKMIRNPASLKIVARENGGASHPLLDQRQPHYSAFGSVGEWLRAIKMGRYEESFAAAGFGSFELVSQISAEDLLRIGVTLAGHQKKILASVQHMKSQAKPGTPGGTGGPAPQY
T11 sequence (P00519 whole entry F317I): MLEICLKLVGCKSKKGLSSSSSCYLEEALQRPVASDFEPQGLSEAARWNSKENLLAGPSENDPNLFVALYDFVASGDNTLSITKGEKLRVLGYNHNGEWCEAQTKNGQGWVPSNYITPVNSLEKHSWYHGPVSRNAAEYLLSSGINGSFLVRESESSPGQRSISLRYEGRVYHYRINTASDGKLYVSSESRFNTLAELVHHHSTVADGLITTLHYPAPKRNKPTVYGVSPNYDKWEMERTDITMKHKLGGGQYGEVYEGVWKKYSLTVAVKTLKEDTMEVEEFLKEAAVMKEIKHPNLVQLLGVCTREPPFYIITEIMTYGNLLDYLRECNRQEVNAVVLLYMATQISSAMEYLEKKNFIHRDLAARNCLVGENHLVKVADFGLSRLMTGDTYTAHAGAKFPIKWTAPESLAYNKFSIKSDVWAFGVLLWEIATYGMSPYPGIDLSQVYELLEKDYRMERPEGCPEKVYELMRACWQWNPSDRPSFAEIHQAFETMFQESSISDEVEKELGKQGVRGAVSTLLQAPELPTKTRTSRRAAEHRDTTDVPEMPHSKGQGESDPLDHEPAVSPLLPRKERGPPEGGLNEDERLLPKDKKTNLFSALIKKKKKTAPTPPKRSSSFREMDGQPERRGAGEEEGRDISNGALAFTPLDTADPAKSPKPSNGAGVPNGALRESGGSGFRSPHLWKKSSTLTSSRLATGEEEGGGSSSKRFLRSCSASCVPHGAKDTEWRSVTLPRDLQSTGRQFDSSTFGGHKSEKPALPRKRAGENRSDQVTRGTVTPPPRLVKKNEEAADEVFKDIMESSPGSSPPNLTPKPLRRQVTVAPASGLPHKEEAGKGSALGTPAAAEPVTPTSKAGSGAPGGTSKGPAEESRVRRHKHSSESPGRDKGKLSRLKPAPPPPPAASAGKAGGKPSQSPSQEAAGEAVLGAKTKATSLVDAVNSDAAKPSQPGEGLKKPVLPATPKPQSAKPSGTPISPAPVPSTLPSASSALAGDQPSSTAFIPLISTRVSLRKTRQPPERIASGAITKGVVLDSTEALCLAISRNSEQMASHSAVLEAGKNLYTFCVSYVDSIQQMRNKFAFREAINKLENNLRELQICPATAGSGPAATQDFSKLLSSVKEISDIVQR
T22 sequence (Q13705 19-512): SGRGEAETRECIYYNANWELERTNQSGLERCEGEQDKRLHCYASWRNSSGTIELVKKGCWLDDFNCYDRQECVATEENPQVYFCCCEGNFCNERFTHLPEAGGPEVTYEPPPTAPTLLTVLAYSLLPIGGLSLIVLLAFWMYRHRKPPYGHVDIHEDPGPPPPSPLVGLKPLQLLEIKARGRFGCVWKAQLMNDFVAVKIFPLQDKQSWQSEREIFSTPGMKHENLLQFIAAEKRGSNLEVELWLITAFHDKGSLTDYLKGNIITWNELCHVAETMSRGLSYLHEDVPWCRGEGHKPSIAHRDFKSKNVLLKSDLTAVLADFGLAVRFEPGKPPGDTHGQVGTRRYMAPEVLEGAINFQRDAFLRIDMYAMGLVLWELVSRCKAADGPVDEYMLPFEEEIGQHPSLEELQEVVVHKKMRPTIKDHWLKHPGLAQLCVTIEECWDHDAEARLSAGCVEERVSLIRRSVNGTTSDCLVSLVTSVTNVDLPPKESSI
T1 sequence (Q00537 whole entry): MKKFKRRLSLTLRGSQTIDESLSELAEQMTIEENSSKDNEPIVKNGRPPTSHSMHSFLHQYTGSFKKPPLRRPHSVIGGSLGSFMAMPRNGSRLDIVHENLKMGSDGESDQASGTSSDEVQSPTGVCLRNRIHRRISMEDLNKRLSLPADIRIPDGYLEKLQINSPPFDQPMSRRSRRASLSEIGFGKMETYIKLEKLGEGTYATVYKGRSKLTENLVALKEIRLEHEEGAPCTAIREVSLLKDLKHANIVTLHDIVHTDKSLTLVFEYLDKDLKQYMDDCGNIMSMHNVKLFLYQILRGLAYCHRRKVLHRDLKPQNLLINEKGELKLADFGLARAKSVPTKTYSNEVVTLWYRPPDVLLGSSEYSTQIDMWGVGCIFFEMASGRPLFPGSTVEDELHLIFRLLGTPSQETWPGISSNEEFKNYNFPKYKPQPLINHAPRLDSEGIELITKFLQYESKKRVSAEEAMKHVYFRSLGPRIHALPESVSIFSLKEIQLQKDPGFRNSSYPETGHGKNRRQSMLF
T5 sequence (P49761 whole entry): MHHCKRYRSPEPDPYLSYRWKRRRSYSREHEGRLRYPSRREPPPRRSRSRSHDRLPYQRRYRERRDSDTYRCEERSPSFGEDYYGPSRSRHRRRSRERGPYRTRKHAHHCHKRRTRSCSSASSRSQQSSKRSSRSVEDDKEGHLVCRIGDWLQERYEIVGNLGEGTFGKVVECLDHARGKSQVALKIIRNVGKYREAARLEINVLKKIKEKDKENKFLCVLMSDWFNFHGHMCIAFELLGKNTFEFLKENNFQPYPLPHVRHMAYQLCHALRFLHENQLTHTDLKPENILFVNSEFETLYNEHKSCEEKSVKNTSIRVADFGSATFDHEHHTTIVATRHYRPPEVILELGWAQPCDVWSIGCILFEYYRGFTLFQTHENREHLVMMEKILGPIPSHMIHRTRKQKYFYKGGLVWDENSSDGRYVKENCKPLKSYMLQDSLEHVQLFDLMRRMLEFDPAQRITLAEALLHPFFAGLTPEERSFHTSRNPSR
T13 sequence (Q13882 whole entry): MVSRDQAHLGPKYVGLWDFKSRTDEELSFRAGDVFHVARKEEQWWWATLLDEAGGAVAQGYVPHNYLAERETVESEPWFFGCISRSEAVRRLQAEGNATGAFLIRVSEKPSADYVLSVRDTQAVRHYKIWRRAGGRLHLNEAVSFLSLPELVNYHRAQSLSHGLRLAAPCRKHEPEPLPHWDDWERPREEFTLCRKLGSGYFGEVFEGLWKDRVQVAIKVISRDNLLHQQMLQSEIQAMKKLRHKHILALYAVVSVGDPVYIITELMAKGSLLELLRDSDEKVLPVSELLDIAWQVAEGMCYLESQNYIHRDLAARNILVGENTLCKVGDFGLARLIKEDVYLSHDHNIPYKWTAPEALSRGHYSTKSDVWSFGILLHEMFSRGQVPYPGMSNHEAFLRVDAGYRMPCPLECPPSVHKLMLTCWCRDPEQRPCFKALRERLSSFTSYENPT
T15 sequence (P07332 whole entry): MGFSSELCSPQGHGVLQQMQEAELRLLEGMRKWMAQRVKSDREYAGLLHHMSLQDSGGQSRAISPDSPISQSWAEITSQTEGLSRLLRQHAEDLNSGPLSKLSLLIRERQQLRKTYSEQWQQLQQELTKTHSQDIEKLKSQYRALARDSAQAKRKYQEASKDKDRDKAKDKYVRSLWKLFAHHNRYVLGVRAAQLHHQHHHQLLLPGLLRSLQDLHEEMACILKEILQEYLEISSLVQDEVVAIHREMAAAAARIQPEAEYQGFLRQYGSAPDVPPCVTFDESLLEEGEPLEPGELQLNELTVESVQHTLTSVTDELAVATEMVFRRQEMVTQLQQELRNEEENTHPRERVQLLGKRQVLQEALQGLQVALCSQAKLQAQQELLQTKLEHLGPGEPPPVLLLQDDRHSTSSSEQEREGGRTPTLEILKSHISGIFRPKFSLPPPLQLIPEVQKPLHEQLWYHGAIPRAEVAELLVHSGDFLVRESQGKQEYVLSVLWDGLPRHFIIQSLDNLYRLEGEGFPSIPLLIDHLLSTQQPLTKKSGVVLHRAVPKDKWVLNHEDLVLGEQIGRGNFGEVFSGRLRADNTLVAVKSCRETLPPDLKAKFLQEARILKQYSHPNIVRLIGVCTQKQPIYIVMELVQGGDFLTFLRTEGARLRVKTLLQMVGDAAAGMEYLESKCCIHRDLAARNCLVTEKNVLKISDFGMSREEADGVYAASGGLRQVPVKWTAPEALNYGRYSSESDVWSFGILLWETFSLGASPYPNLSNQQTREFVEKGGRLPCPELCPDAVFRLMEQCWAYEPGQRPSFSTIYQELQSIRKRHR

Q: What does the source list for C#Cc1cccc(Nc2ncnc3cc(OC)c(OCCCN4CCOCC4)cc23)c1 [NRC-2694, N-(3-ethynylphenyl)-7-methoxy-6-[3-(4-morpholinyl)propoxy]-4-quinazolinamine]?
A: remaining binding at 10 µM (PCTK2): 72%; remaining binding at 10 µM (CSNK1G3): 61%; remaining binding at 10 µM (BLK): 4.4%; remaining binding at 10 µM [1]: 0%; remaining binding at 10 µM (CLK3): 45%; remaining binding at 10 µM [2]: 94%; remaining binding at 10 µM (RET(V804L)): 81%; remaining binding at 10 µM (BIKE): 36%; remaining binding at 10 µM (MYO3A): 70%; remaining binding at 10 µM (SgK110): 83%; remaining binding at 10 µM (ABL1(F317I)): 48%; remaining binding at 10 µM (ADCK4): 14%; remaining binding at 10 µM (BRK): 46%; remaining binding at 10 µM (MAP4K2): 48%; remaining binding at 10 µM (FES): 72%; remaining binding at 10 µM (LYN): 13%; remaining binding at 10 µM (CIT): 5%; remaining binding at 10 µM [3]: 15%; remaining binding at 10 µM (EPHB4): 39%; remaining binding at 10 µM (PHKG2): 59%; remaining binding at 10 µM (PLK1): 81%; remaining binding at 10 µM (ACVR2B): 63%; remaining binding at 10 µM (PRKCQ): 83%; remaining binding at 10 µM [4]: 97%; remaining binding at 10 µM (PAK6): 70%; remaining binding at 10 µM (LATS2): 93%; remaining binding at 10 µM (BMPR1B): 78%; remaining binding at 10 µM (MLK3): 72%; remaining binding at 10 µM (PKAC-beta): 88%; remaining binding at 10 µM (MLK1): 100%; remaining binding at 10 µM [5]: 72%
